Converted amounts (≈) assume the structure as drawn. Read-outs that look alike come from different tables or passages of the source.
What was measured:
[1] = system: Staph. aureus (Pen-Res) A-9606; assay: MIC, tube dilution, Staphylococcus aureus A9606 (Pen-Res); assay type: cell-based; details: Staphylococcus aureus, Staph. aureus A9606 (Pen-Res); overnight 37° C.; read-out: Minimum Inhibitory Concentration (M.I.C.)
From the text: (§1) Representative compounds of the present invention were subjected to in vitro antibiotic screening against a variety of microorganisms.

[2] = system: E. coli A-20341-1; assay: MIC, tube dilution, Escherichia coli A20341-1; assay type: cell-based
From the text: as §1

[3] = system: Pr. mirabilis A-9900; assay: MIC, tube dilution, Proteus mirabilis A9900; assay type: cell-based; details: Proteus mirabilis, A9900, Proteus mirabilis A9900; overnight 37° C.; read-out: Minimum Inhibitory Concentration (M.I.C.)
From the text: as §1

[4] = system: Staph. aureus (Meth-Res) A-15097; assay: MIC, tube dilution, Staphylococcus aureus A15097 (Meth-Res); assay type: cell-based; details: Staphylococcus aureus, overnight 37° C.
From the text: as §1

[5] = system: K. pneumoniae A-15130; assay: MIC, tube dilution, Klebsiella pneumoniae A15130; assay type: cell-based; details: Klebsiella pneumoniae, A15130, K. pneumoniae A15130; overnight 37° C.; read-out: Minimum Inhibitory Concentration (M.I.C.)
From the text: as §1

[6] = system: Pr. morganii A-15153; assay: MIC, tube dilution, Proteus morganii A15153; assay type: cell-based; details: Morganella morganii, A15153, Proteus morganii A15153; overnight 37° C.; read-out: Minimum Inhibitory Concentration (M.I.C.)
From the text: as §1

[7] = system: Ps. aeruginosa A-21213; assay: MIC, tube dilution, Pseudomonas aeruginosa A21213; assay type: cell-based; details: overnight 37° C., read-out: Minimum Inhibitory Concentration (M.I.C.)
From the text: as §1

[8] = system: Proteus vulgaris A21559; assay: MIC, tube dilution, Proteus vulgaris A21559; assay type: cell-based; details: Proteus vulgaris, A21559, Proteus vulgaris A21559; overnight 37° C.; read-out: Minimum Inhibitory Concentration (M.I.C.)
From the text: as §1

[9] = system: Str. pyogenes A-9604; assay: MIC, tube dilution, Streptococcus pyogenes A9604; assay type: cell-based; details: Streptococcus pyogenes, A9604, Str. pyogenes A9604; overnight 37° C., Nutrient Broth; read-out: Minimum Inhibitory Concentration (M.I.C.)
From the text: as §1

[10] = system: Ser. marcescens A-20019; assay: MIC, tube dilution, Serratia marcescens A20019; assay type: cell-based; details: Serratia marcescens, A20019, Serratia marcescens A20019; overnight 37° C.; read-out: Minimum Inhibitory Concentration (M.I.C.)
From the text: as §1

[11] = system: Staph. aureus A-9537 and 50% serum; assay: MIC, tube dilution, Staph. aureus A9537 + 50% serum; assay type: cell-based, Staphylococcus aureus; details: Staphylococcus aureus, overnight 37° C., read-out: Minimum Inhibitory Concentration (M.I.C.)
From the text: as §1

[12] = system: Str. faecalis A-20688; assay: MIC, tube dilution, Streptococcus faecalis A20688; assay type: cell-based; details: Enterococcus faecalis, A20688, Str. faecalis A20688; overnight 37° C.; read-out: Minimum Inhibitory Concentration (M.I.C.)
From the text: as §1

[13] = system: Ps. aeruginosa A-9843A; assay: MIC, tube dilution, Pseudomonas aeruginosa A9843A; assay type: cell-based; details: Pseudomonas aeruginosa, A9843A, read-out: Minimum Inhibitory Concentration (M.I.C.), Pseudomonas aeruginosa A9843A; overnight 37° C.
From the text: as §1

[14] = system: Staph. aureus A-9537; assay: MIC, tube dilution, Staphylococcus aureus A9537; assay type: cell-based; details: Staphylococcus aureus, A9537, Staph. aureus A9537; overnight 37° C., Nutrient Broth; read-out: Minimum Inhibitory Concentration (M.I.C.)
From the text: as §1

[15] = system: Klebsiella species A20468; assay: MIC, tube dilution, Klebsiella species A20468; assay type: cell-based; details: Klebsiella species (K. pneumoniae) A20468; overnight 37° C.; read-out: Minimum Inhibitory Concentration (M.I.C.)
From the text: as §1

[16] = system: Ent. cloacae A-9659; assay: MIC, tube dilution, Enterobacter cloacae A9659; assay type: cell-based; details: Enterobacter cloacae, A9659, Enterobacter cloacae A9659; overnight 37° C.; read-out: Minimum Inhibitory Concentration (M.I.C.)
From the text: as §1

[17] = system: Ent. cloacae A-9656; assay: MIC, tube dilution, Enterobacter cloacae A9656; assay type: cell-based; details: overnight 37° C., read-out: Minimum Inhibitory Concentration (M.I.C.)
From the text: as §1

[18] = system: Proteus rettgeri A21203; assay: MIC, tube dilution, Proteus rettgeri A21203; assay type: cell-based; details: Providencia rettgeri, A21203, Proteus rettgeri A21203; overnight 37° C.; read-out: Minimum Inhibitory Concentration (M.I.C.)
From the text: as §1

[19] = system: E. coli A-15119; assay: MIC, tube dilution, Escherichia coli A15119; assay type: cell-based; details: Escherichia coli, A15119, E. coli A15119; overnight 37° C.; read-out: Minimum Inhibitory Concentration (M.I.C.)
From the text: as §1

[20] = system: Str. pneumoniae A-9585; assay: MIC, tube dilution, Streptococcus pneumoniae A9585; assay type: cell-based; details: Streptococcus pneumoniae, A9585, Str. pneumoniae A9585; overnight 37° C., Nutrient Broth; read-out: Minimum Inhibitory Concentration (M.I.C.)
From the text: as §1

[21] = system: S. aureus A9537; assay: In vivo protection of mice, lethal infection with S. aureus A9537; details: Staphylococcus aureus, A9537, im, IM, 2 treatments, read-out: PD50
Method: Representative compounds of the present invention were also tested in vivo in mice and their PD50 (dose of compound in mg/kg required to protect 50% of the treated mice against an otherwise lethal infection of a micro-organism) values determined with respect to the test organisms shown below.

[22] = Escherichia coli, A203411, E. coli A20341-1; overnight 37° C.; read-out: Minimum Inhibitory Concentration (M.I.C.)
[23] = Staph. aureus A15097 (Meth-Res), read-out: Minimum Inhibitory Concentration (M.I.C.)
[24] = Pseudomonas aeruginosa, A21213, Pseudomonas aeruginosa A21213
[25] = Enterobacter cloacae, A9656, Enterobacter cloacae A9656
[26] = Escherichia coli, A203411; E. coli A20341-1; overnight 37° C.; read-out: Minimum Inhibitory Concentration (M.I.C.)

Row | SMILES | MIC [1] [µg/mL] | MIC [2, 22] [µg/mL] | MIC [3] [µg/mL] | MIC [4, 23] [µg/mL] | MIC [5] [µg/mL] | MIC [6] [µg/mL] | MIC [7, 24] [µg/mL] | MIC [8] [µg/mL] | MIC [9] [µg/mL] | MIC [10] [µg/mL] | MIC [11] [µg/mL] | MIC [12] [µg/mL] | MIC [13] [µg/mL] | MIC [14] [µg/mL] | MIC [15] [µg/mL] | MIC [16] [µg/mL] | MIC [17, 25] [µg/mL] | MIC [18] [µg/mL] | MIC [19] [µg/mL] | MIC [20] [µg/mL] | other results
1 | CC1=C(C(=O)O)N2C(=O)[C@H]([C@@H]3COC(C)(C)O3)[C@H]2S1 (relative stereo) [Example 103, (4'R,5R,6S and 4'S,5S,6R) 6-(2',2'-Dimethyl-1',3'-dioxolan-4'-yl)-2-methylpenem-3-carboxylic Acid (Isomer C)] | > 63 | > 63 | 63 (≈ 221 µM) | > 63 | > 63 | > 63 | 63 (≈ 221 µM) | > 63 | 63 (≈ 221 µM) | > 63 | > 32 | > 63 | 63 (≈ 221 µM) | > 63 | > 63 | > 63 | > 63 | > 63 | > 63 | 63 (≈ 221 µM) | ED50 ([21]; 8 × 10^5 organisms): > 5 mg/kg
2 | N#CCCC(N)C1=C(C(=O)O)N2C(=O)C[C@H]2S1 (stereo partly drawn) [Example 83, 2-(1'-Amino-3'-cyanopropyl)-penem-3-carboxylic Acid] | 32 (≈ 126 µM) | 16 (≈ 63.2 µM) | 2 (≈ 7.9 µM) | > 125 | 8 (≈ 31.6 µM) | 4 (≈ 15.8 µM) | 63 (≈ 249 µM) | 8 (≈ 31.6 µM) | 0.13 (≈ 0.513 µM) | 4 (≈ 15.8 µM) | 8 | 125 (≈ 494 µM) | 63 (≈ 249 µM) | 0.5 (≈ 1.97 µM) | > 125 | 16 (≈ 63.2 µM) | 4 (≈ 15.8 µM) | 4 (≈ 15.8 µM) | 2 (≈ 7.9 µM) | 0.06 (≈ 0.237 µM) | ED50 ([21]; 1.1 × 10^6 organisms): 3.3 mg/kg
3 | NCc1ccc(C2=C(C(=O)O)N3C(=O)CC3S2)cc1 (stereo not drawn) [Example 74, 2-(p-Aminomethylphenyl)penem-3-carboxylic Acid] | 32 (≈ 116 µM) | – | 4 (≈ 14.5 µM) | 32 (≈ 116 µM) | 32 (≈ 116 µM) | 16 (≈ 57.9 µM) | – | 16 (≈ 57.9 µM) | 0.001 (≈ 0.00362 µM) | 16 (≈ 57.9 µM) | 2 | 1 (≈ 3.62 µM) | > 125 | 0.004 (≈ 0.0145 µM) | > 125 | 32 (≈ 116 µM) | 32 (≈ 116 µM) | 16 (≈ 57.9 µM) | 8 (≈ 29 µM) | 0.001 (≈ 0.00362 µM) | MIC [2, 26]: 125 µg/mL (≈ 452 µM); MIC ([7]; Pseudomonas aeruginosa A21213): > 125 µg/mL; ED50 ([21]; 7.3 × 10^5 organisms): 0.82 mg/kg
4 | CCCC(N)C1=C(C(=O)O)N2C(=O)CC2S1 [Example 82, (1'R,5R and 1'S,5S) and (1'R,5S and 1'S,5R) 2-(1'-Aminobutyl)-penem-3-carboxylic Acid] | 16 (≈ 66 µM) | 32 (≈ 132 µM) | 4 (≈ 16.5 µM) | 4 (≈ 16.5 µM) | 32 (≈ 132 µM) | 16 (≈ 66 µM) | – | 8 (≈ 33 µM) | 0.016 (≈ 0.066 µM) | 16 (≈ 66 µM) | 4 | 63 (≈ 260 µM) | > 125 | 0.25 (≈ 1.03 µM) | > 125 | 63 (≈ 260 µM) | 32 (≈ 132 µM) | 8 (≈ 33 µM) | 8 (≈ 33 µM) | 0.016 (≈ 0.066 µM) | MIC ([7]; Pseudomonas aeruginosa A21213): > 125 µg/mL; ED50 ([21]; 1 × 10^6 organisms): 1.25 mg/kg
5 | CC(N)CCC1=C(C(=O)O)N2C(=O)C[C@H]2S1 (stereo partly drawn) [Example 80, 2-(3'-Aminobutyl)-penem-3-carboxylic Acid] | 0.5 (≈ 2.06 µM) | 8 (≈ 33 µM) | 4 (≈ 16.5 µM) | > 63 | 8 (≈ 33 µM) | 16 (≈ 66 µM) | > 63 | 8 (≈ 33 µM) | 0.06 (≈ 0.248 µM) | 8 (≈ 33 µM) | 0.25 | 16 (≈ 66 µM) | 63 (≈ 260 µM) | 0.06 (≈ 0.248 µM) | > 63 | 16 (≈ 66 µM) | 8 (≈ 33 µM) | 8 (≈ 33 µM) | 4 (≈ 16.5 µM) | 0.03 (≈ 0.124 µM) | ED50 ([21]; 8 × 10^5 organisms): 0.6 mg/kg
6 | CC1(C)OCC(C(N)C2=C(C(=O)O)N3C(=O)CC3S2)O1 [Example 84, (1'R,2'R,5R and 1'S,2'S,5S),(1'R,2'R,5S and 1'S,2'S,5R), (1'R,2'S,5S and 1'S,2'R,5R), (1'R,2'S,5R and 1'S,2'R,5S) 2-(1'-Amino-2,3-dihydroxy-2,3-acetonylpropyl)-penem-3-carboxylic Acid] | 16 (≈ 53.3 µM) | – | 8 (≈ 26.6 µM) | – | 125 (≈ 416 µM) | 16 (≈ 53.3 µM) | – | 63 (≈ 210 µM) | 1 (≈ 3.33 µM) | 63 (≈ 210 µM) | 32 | > 125 | > 125 | 4 (≈ 13.3 µM) | > 125 | 125 (≈ 416 µM) | – | 32 (≈ 107 µM) | 16 (≈ 53.3 µM) | 1 (≈ 3.33 µM) | MIC [2, 26]: > 125 µg/mL; MIC ([4]; read-out: Minimum Inhibitory Concentration (M.I.C.), Staph. aureus A15097 (Meth-Res)): > 125 µg/mL; MIC ([7]; Pseudomonas aeruginosa A21213): > 125 µg/mL; MIC ([17]; Enterobacter cloacae A9656): 125 µg/mL (≈ 416 µM); ED50 ([21]; 1 × 10^6 organisms): 33 mg/kg

— patent US4272437A, “Antibacterial agents, and 4-thio azetidinone intermediates” (priority 1979, dated 1981)
